In patent US5491072A, “N-alkylacridan carboxyl derivatives useful for chemiluminescent detection” (Lumigen, Inc., priority 1993, dated 1996):

Key:
[1] = biological target: T1, horseradish peroxidase (Armoracia rusticana, UniProt P00433); assay: Effect of pH and buffer salt on chemiluminescence of 1b; type: biochemical; details: 0.1 mM 1b, 0.8 mM H2O2, 2.25 mM p-iodophenol, 1.4×10^-15 mol HRP, 30 min, room temperature
T1 sequence (P00433 31-338 limits assumed): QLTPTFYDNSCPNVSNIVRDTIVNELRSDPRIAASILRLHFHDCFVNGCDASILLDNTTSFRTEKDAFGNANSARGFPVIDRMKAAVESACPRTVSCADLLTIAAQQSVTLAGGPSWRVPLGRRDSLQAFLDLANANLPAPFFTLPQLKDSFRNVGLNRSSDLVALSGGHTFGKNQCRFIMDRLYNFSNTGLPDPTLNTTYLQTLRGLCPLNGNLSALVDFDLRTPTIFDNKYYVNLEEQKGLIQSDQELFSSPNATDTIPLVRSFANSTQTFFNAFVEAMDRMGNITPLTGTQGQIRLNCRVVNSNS
Method: (§1) The experiments in the following examples were performed using a Turner Designs TD-20e luminometer fitted with neutral density filter for light attenuation. Data collection, analysis and display were software controlled. Constant temperature was maintained by means of an external circulating water bath connected to the luminometer.
The present invention may be practiced over the pH range of at least 7-9 and functions with different buffering salts. Tubes containing 200 μL of a formulation containing 0.1 mM 1b in the specified buffer, 0.8 mM H2 O2, 2.25 mM p-iodophenol, 0.5% (w/w) Tween 20 and 1 mM EDTA were placed in the luminometer at room temperature. Horseradish peroxidase (1.4×10^-15 mol) was injected and the chemiluminescence intensity determined at 30 min. The time course of the light emission was similar in all four solutions. The optimum pH can vary with changes in the concentrations of the reactants.

[2] = biological target: T1, horseradish peroxidase; assay: Comparison of compounds 1a-e at pH 8.9, time course and total intensity of chemiluminescence; type: biochemical; details: 0.01 mM acridan, 0.1M phosphate pH 8.9, 6.2 mM H2O2, 2.25 mM p-iodophenol, 1×10^-13 mol HRP
Method: as §1
A 200 μL volume of a formulation containing 0.01 mM acridan compound 1a-e in 0.1M phosphate buffer, pH 8.9, […] (6.2 mM) H2 O2, 2.25 mM p-iodophenol, 0.5% (w/w) Tween 20 and 1 mM EDTA was reacted with 1×10^-13 mol of horseradish peroxidase. […] Compared below are the peak light intensity (Imax) in relative light units (RLU), the time to maximum light intensity (tmax) and total light output.

[3] = test system: human transferrin; assay: Chemiluminescent detection of proteins by Western blot
From the text: To determine the sensitivity of reagents of the present invention for detection of proteins by Western blotting, a model system of transferrin was used to provide polypeptide bands in known quantities.
Rabbit anti-goat IgG-peroxidase conjugate and rabbit anti-goat IgG-peroxidase were obtained from Cappel Products (Durham, N.C.). Human transferrin and fractionated goat anti-human transferrin serum were purchased from Sigma Chemical Co. (St. Louis, Mo.)). The IgG sample was centrifuged at 10,000 g for two minutes and the supernatant was used in the immunological reaction. Immobilon™-P transfer membrane was obtained from Millipore Corp. (Bedford, Mass.). Kodak (Rochester, N.Y.) X-OMAT AR and OMC films were used in the assay procedure.
SDS-PAGE was performed utilizing the buffer system described by Laemmli (U. K. Laemmli, Nature (London), 227, 680 (1970)). The stacking gel was 4.38% acrylamide: 0.12% bisacrylamide. The separating gel was 6.81% acrylamide: 0.19% bisacrylamide. Following electrophoresis the gel was equilibrated for 7-8 minutes with the transfer buffer which contained 20 mM Tris, 153 mMglycine and 20% (v/v) methanol. The gel, sandwiched between a sheet of transfer membrane and a sheet of chromatography paper 3MM (Whatman), was placed in the transfer unit (Bio-Rad Laboratories, Richmond, Calif.). […]

[4] = biological target: T2, HRP (Armoracia rusticana, UniProt P00433); assay: Comparison of detection of HRP with luminol reagent and 1b reagent; type: biochemical, horseradish; details: corrected signal-to-background at 5 min, 37° C., comparing log (S-B)/B=0
T2 sequence (P00433 31-338 limits assumed): T1 sequence (P00433 31-338 limits assumed)
Method: as §1
Forty μL of a solution containing 1b (0.05 mM), p-iodophenol (2.25 mM), H2 O2 (0.2 mM), Tween 20 (0.5%), EDTA (1 mM) in 0.1M tris, pH 8.0 and forty μL of the commercial reagent (Amersham, Arlington Heights, Ill.) were incubated at 37° C. and reacted with varying amounts of HRP. FIG. 6 compares the corrected signal-to-background ratios at 5 min. […] Measuring light intensity at 15 min provides an additional reduction in detection limit with the reagent containing 1b, while the luminol reagent results are unchanged.

- S/B ([1]; 0.1 M phosphate buffer, pH 8.9): 306
- S/B ([1]; 0.1 M tris buffer, pH 8.0): 1400
- S/B ([1]; 0.1 M tris buffer, pH 8.5): 600
- S/B ([1]; 0.1 M tris buffer, pH 8.9): 160
- I max (RLU), peak light intensity ([2]; 0.5% Tween 20, 1 mM EDTA): 2047 RLU
- I total (RLU), total light output [2]: 2 × 10^6 RLU
- t max (min), time to maximum light intensity [2]: 4.2 min
- sensitivity of detection of HRP compared to the luminol reagent [4]: greater sensitivity of detection
Structure (SMILES): CN1c2ccccc2C(C(=O)Oc2ccc(O)cc2)c2ccccc21 [Compound 1b, 4'-Hydroxyphenyl 10-methylacridan-9-carboxylate]
- duration of detectable chemiluminescence on membrane (X-ray film) ([3]; HRP-conjugate on membrane, Western blot): at least three hours
- transferrin standards clearly visible down to ([3]; detection reagent with 5 × 10^-5 M 1b and NaBO3, 7 sec exposure X-OMAT AR film or 30 second exposure OMC film): 20 pg/slot
